Data from EP4417602A1, “SUBSTITUTED PYRAZOLE CARBOXAMIDES, SALTS THEREOF AND THEIR USE AS HERBICIDALLY ACTIVE SUBSTANCES” (Bayer AG, priority 2023, dated 2024).

Columns and labels:
LOLRI = test: A. Herbicidal pre-emergence action on harmful plants (Tables A); format: in vivo, Lolium rigidum; details: visual grading after ca. 3 weeks vs untreated controls, 100% = plants have died off, 0% = as control plants
From the text: (§1) Seeds of mono- and dicotyledonous weed plants were sown in plastic pots (double sowings with one species of mono- and one species of dicotyledonous weed plants per pot), in sandy loam, and covered with soil. The compounds according to the invention, formulated in the form of wettable powders (WP) or as emulsifiable concentrates (EC), were applied to the surface of the covering soil as aqueous suspension or emulsion, with the addition of 0.5% of an additive, at an application rate of 6001 of water per hectare (converted). Following treatment, the pots were placed in a greenhouse and kept under optimum growth conditions for the test plants. The visual grading of the damage to the test plants was carried out after ca. 3 weeks in comparison to untreated controls (herbicidal effect in percent (%): 100% effect = plants have died off, 0% effect = as control plants). Tables A1 to A12, below, show the effects of selected compounds of the general formula (I) according to table 1 on various harmful plants and an application rate corresponding to 1280 g/ha or below obtained by the experimental procedure mentioned above. Table A1: pre-emergence activity at 1280g/ha against ABUTH in %

ALOMY = test: as above; format: in vivo, Alopecurus myosuroides
From the text: as §1

ECHCG [1] = test: as above; format: in vivo, Echinochloa crus-galli; details: visual grading after ca. 3 weeks vs untreated controls, 100% = plants have died off, 0% = as control plants
From the text: as §1

VERPE = test: B. Herbicidal post-emergence action on harmful plants (Tables B); format: in vivo, Veronica persica; details: application rate 1280 g/ha; Table B11a
Procedure: (§2) Seeds of mono- and dicotyledonous weed plants were placed in plastic pots in sandy loam soil (doubly sown with in each case one species of mono- or dicotyledonous weed plants per pot), covered with soil and cultivated in a greenhouse under controlled growth conditions. 2 to 3 weeks after sowing, the test plants were treated at the one-leaf stage. The compounds of the invention, formulated in the form of wettable powders (WP) or as emulsion concentrates (EC), were applied onto the green parts of the plants as aqueous suspension or emulsion with addition of 0.5% additive at a water application rate of 600 liters per hectare (converted). After the test plants had been kept in the greenhouse under optimum growth conditions for about 3 weeks, the activity of the preparations was rated visually in comparison to untreated controls. For example, 100% activity = the plants have died, 0% activity = like control plants. Tables B1 to B12, below, show the effects of selected compounds of the general formula (I) according to table 1 on various harmful plants and an application rate corresponding to 1280 g/ha or below obtained by the experimental procedure mentioned above. Table B1a: post-emergence activity at 1280g/ha against ABUTH in %

POAAN [2] = test: as above; format: in vivo, Poa annua
Procedure: as §2

SETVI = test: A. Herbicidal pre-emergence action on harmful plants (Tables A); format: in vivo, Setaria viridis; details: visual grading after ca. 3 weeks vs untreated controls, 100% = plants have died off, 0% = as control plants
From the text: as §1

POAAN [3] = test: as above; format: in vivo, Poa annua
From the text: as §1

DIGSA = test: as above; format: in vivo, Digitaria sanguinalis
From the text: as §1

ECHCG [4] = test: B. Herbicidal post-emergence action on harmful plants (Tables B); format: in vivo, Echinochloa crus-galli; details: application rate 1280 g/ha; Table B2a
Procedure: as §2

MATIN [5] = test: A. Herbicidal pre-emergence action on harmful plants (Tables A); format: in vivo, Matricaria inodora
From the text: as §1

STEME = test: as above; format: in vivo, Stellaria media; details: visual grading after ca. 3 weeks vs untreated controls, 100% = plants have died off, 0% = as control plants
From the text: as §1

MATIN [6] = test: B. Herbicidal post-emergence action on harmful plants (Tables B); format: in vivo, Matricaria inodora; details: application rate 1280 g/ha; Table B4a
Procedure: as §2

AMARE = test: A. Herbicidal pre-emergence action on harmful plants (Tables A); format: in vivo, Amaranthus retroflexus; details: application rate 1280 g/ha; visual grading after ca. 3 weeks vs untreated controls; 100% = plants have died off, 0% = as control plants
From the text: as §1

[7] = application rate 1280 g/ha, Table A9a
[8] = application rate 320 g/ha, Table B7b
[9] = application rate 1280 g/ha, Table B7a
[10] = application rate 80 g/ha, Table A7c
[11] = application rate 320 g/ha, Table A7b
[12] = application rate 1280 g/ha, visual grading after ca. 3 weeks vs untreated controls, 100% = plants have died off, 0% = as control plants
[13] = application rate 1280 g/ha, Table A12a
[14] = application rate 320 g/ha, Table A9b
[15] = application rate 320 g/ha, Table A12b
[16] = application rate 80 g/ha, Table A12c
[17] = application rate 80 g/ha, Table B7c

| SMILES | pre-emergence activity against LOLRI (LOLRI; application rate 1280 g/ha) | pre-emergence activity against ALOMY (ALOMY; [7]) | pre-emergence activity against ECHCG (ECHCG [1]; application rate 320 g/ha) | pre-emergence activity against ECHCG (ECHCG [1]; application rate 1280 g/ha) | post-emergence activity against VERPE (VERPE) | post-emergence activity against POAAN (POAAN [2]; [8]) | post-emergence activity against POAAN (POAAN [2]; [9]) | pre-emergence activity against SETVI (SETVI; application rate 1280 g/ha) | pre-emergence activity against POAAN (POAAN [3]; [10]) | pre-emergence activity against POAAN (POAAN [3]; [11]) | pre-emergence activity against POAAN (POAAN [3]; [12]) | pre-emergence activity against DIGSA (DIGSA; [13]) | pre-emergence activity against ALOMY (ALOMY; [14]) | pre-emergence activity against MATIN (MATIN [5]; [12]) | pre-emergence activity against STEME (STEME; application rate 1280 g/ha) | pre-emergence activity against LOLRI (LOLRI; application rate 320 g/ha) | pre-emergence activity against DIGSA (DIGSA; [15]) | pre-emergence activity against STEME (STEME; application rate 320 g/ha) | pre-emergence activity against AMARE (AMARE) | pre-emergence activity against SETVI (SETVI; application rate 320 g/ha) | further results |
| --- | --- | --- | --- | --- | --- | --- | --- | --- | --- | --- | --- | --- | --- | --- | --- | --- | --- | --- | --- | --- | --- |
| COCc1nn(C)cc1C(=O)N1CCCC1Cc1ncccc1F (racemic) [Example I-015] | 100% | 90% | 90% | 100% | 90% | 90% | 90% | 90% | 100% | 100% | 100% |  |  |  |  |  |  |  |  |  |  |
| COCc1c(C(=O)N2CCCC2Cc2ccc(F)cc2F)cnn1C (racemic) [Example I-158] | 90% | 100% |  | 100% |  |  | 100% | 90% |  | 100% | 100% | 100% | 100% | 90% | 90% |  |  |  |  |  | post-emergence activity against ECHCG (ECHCG [4]): 90% |
| COCc1nn(C(=O)NC2CC2)cc1C(=O)N1CCCC1Cc1ccccc1F (racemic) [Example I-036] | 90% | 90% | 90% | 100% | 90% |  |  | 90% | 90% | 90% | 100% | 100% |  | 90% | 90% | 90% | 90% | 90% |  |  |  |
| COCc1nn(C)cc1C(=O)N1CCCC1Cc1c(F)cccc1F (racemic) [Example I-081] | 100% | 100% | 100% | 100% |  | 90% | 100% | 100% | 100% | 100% | 100% | 100% | 90% | 90% | 90% | 100% | 100% |  | 90% | 100% | pre-emergence activity against LOLRI (LOLRI; application rate 80 g/ha): 100%; post-emergence activity against MATIN (MATIN [6]): 90%; pre-emergence activity against DIGSA (DIGSA; [16]): 90%; pre-emergence activity against MATIN (MATIN [5]; application rate 320 g/ha, visual grading after ca. 3 weeks vs untreated controls, 100% = plants have died off, 0% = as control plants): 90%; pre-emergence activity against ECHCG (ECHCG [1]; application rate 80 g/ha): 90%; post-emergence activity against POAAN (POAAN [2]; [17]): 90%; pre-emergence activity against SETVI (SETVI; application rate 80 g/ha): 90% |
| COCc1nn(C)c(Cl)c1C(=O)N1CCCC1Cc1ccccc1F (single isomer, unassigned) [Example I-058] | 90% |  | 90% | 100% |  |  | 90% | 100% |  |  | 100% | 100% |  |  | 90% |  | 90% |  | 100% | 90% | pre-emergence activity against MATIN (MATIN [5]; pre-emergence, 1280 g/ha, 504 h): 90% |
| COCc1c(C(=O)N2CCCC2Cc2c(F)cccc2F)cnn1C (single isomer, unassigned) [Example I-126] | 100% | 90% | 90% | 90% |  | 90% | 90% | 100% | 90% | 90% | 100% | 100% | 90% | 90% | 90% | 90% | 100% | 90% |  | 90% | pre-emergence activity against DIGSA (DIGSA; [16]): 90%; pre-emergence activity against ECHCG (ECHCG [1]; application rate 80 g/ha): 90%; post-emergence activity against POAAN (POAAN [2]; [17]): 90%; pre-emergence activity against SETVI (SETVI; application rate 80 g/ha): 90% |
| COCc1c(C(=O)N2CCCC2Cc2ccccc2C)cnn1C (single isomer, unassigned) [Example I-139] | 90% |  |  | 100% |  |  |  | 100% | 100% | 100% | 100% | 100% |  |  |  |  | 90% |  | 90% |  |  |
| CCOCc1c(C(=O)N2CCCC2Cc2ccccc2F)cnn1C (single isomer, unassigned) [Example I-142] | 100% | 90% | 90% | 100% |  |  | 90% | 100% | 90% | 100% | 100% | 100% |  | 90% | 90% | 90% | 90% | 90% | 90% | 90% | pre-emergence activity against ECHCG (ECHCG [1]; application rate 80 g/ha): 90% |
| COCc1nn(C)cc1C(=O)N1CCCC1Cc1ccccc1OC (racemic) [Example I-014] | 100% | 90% | 90% | 100% | 90% |  |  | 90% |  | 100% | 100% |  |  |  |  | 90% |  |  |  |  |  |
| COCc1nn(C)cc1C(=O)N1CCCC1Cc1ccc(Cl)cc1Cl (racemic) [Example I-016] |  |  | 90% | 100% |  |  | 90% | 90% |  | 100% | 100% |  |  |  |  |  |  |  |  |  | post-emergence activity against ECHCG (ECHCG [4]): 90% |
